Results published in patent US20260083751A1, “ALLOSTERIC MODULATORS OF ANDROGEN RECEPTOR COACTIVATOR RECRUITMENT FOR CRPC THERAPY” (University of Pittsburgh – Of the Commonwealth System of …, priority 2022, published 2026).
Entries after “also recorded” stand apart in the source; their conditions may differ. Where two headings read alike, the source gives them in different places.

Columns and labels:
Format in all cases: cell-based
[1] = test system: UBE2C promoter-driven transcription in PC3-AR-V7-GFP cells; experiment: UBE2C promoter driven luciferase reporter assay in PC3-AR-V7-GFP cells
Description: UBE2C Promoter Driven Luciferase Reporter Assay in PC3-AR-V7-GFP Cells: The pGL4.28-UBE2C 20bpX3 luciferase reporter plasmid (Xu et al., Cancer Res 2015, 75:3663-71) was provided by Dr. Yan Dong from Tulane University. FuGENE® HD transfection agent and the UBE2C-Luc plasmid (10 ng/well) were combined at a 3:1 (μL:μg) ratio, in Opti-MEM™ medium and incubated for 25 min at RT before being added to PC3-AR-V7-GFP cells that were suspended in RPMI 1640 (Gibco) media containing 1% L-glutamine (Invitrogen), and 10% fetal bovine serum (Gemini Bio-products). Bulk transfected PC3-AR-V7-GFP cells were seeded into white opaque 384-well assay plates (Greiner Bio-one, #781080) at a density of 3,000 cell per well in a volume of […] and incubated at 5% CO2, 37° C., and 95% humidity for 24 h. After 24 h, 10 μL of compounds were transferred to assay wells and the plates were returned to the incubator for an additional 24 h before 25 μL of BrightGlo® luciferase reagent (Promega) was added to the wells and the RLU's were captured on a SpectraMax® M5e plate reader (Molecular Devices LLC) as described previously (Ibid.).

AR = target: T1, AR (Homo sapiens, UniProt P10275, T878A); experiment: AlphaScreen cellular thermal shift assay (CETSA) for AR target engagement in C4-2 cells; details: for AR thermal stability at 46° C., compound alone / DHT-induced (DHT-enhanced) AR thermal stability at 46° C.: C4-2 cells; for AR thermal stability at 46° C., compound alone: 20 μM where stated, 46° C. for 5 min; for DHT-induced (DHT-enhanced) AR thermal stability at 46° C.: compound 20 μM where stated, 10 nM DHT; for DHT-enhanced AR stability at 46° C.: 20 μM and 50 μM compound; for Right shift of the DHT EC50: 20 or 50 μM compound; for Maximum efficacy of DHT-enhanced AR thermal stabilization: S2-6 at 20 or 50 μM, S3-11 at 50 μM; for IC50: read-out: IC50, inhibition of DHT-induced AR stability at 46° C.
T1 construct: the amount of soluble AR protein in heat shocked C4-2 cell lysates; endogenous in cells; host or cells: C4-2 castration resistant prostate cancer cells
T1 sequence (P10275 1-920 T878A): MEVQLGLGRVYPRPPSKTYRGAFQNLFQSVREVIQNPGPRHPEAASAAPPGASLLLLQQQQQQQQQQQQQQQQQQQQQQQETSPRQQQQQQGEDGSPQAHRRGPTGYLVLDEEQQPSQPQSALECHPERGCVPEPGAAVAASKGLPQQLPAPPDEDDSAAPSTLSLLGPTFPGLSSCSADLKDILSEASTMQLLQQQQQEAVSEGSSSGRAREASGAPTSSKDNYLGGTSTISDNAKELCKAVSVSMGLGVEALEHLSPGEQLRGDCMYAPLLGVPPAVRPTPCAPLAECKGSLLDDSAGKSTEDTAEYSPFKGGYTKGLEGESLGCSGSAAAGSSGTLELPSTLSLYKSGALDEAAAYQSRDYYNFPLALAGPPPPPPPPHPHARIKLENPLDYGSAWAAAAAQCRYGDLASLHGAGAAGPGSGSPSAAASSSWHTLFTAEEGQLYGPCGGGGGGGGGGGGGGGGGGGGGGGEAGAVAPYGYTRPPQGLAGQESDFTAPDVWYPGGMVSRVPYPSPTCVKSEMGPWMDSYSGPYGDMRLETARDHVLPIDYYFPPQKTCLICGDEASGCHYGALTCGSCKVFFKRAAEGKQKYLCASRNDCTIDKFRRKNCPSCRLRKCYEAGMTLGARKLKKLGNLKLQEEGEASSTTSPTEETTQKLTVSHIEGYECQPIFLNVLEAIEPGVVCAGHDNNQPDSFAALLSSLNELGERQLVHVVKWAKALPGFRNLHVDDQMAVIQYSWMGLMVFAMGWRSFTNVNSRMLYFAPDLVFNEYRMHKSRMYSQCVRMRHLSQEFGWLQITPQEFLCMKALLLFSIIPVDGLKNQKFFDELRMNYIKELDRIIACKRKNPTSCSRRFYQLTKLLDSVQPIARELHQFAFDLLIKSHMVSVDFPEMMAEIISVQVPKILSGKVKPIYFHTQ
Description: Mouse anti-hAR (BD Biosciences, San Jose, CA) and rabbit anti-hAR (MilliporeSigma, Burlington, MA) were diluted 1:330 and 1:1000 fold respectively in PBS containing 0.5 mg/mL BSA and 4 μL of the combined diluted AR antibody pair were added to 4 μL of the cell lysate supernatant in a 384-well plate and incubated in the dark for 30 min at room temperature. To each well of the 384-well plate 4 μL of a combined solution of anti-mouse IgG Alpha Donor and anti-rabbit IgG (Fc specific) AlphaLISA® Acceptor beads (Perkin Elmer, Waltham, MA) suspended in 1× lysis buffer was added to yield a final donor and acceptor bead concentrations of 40 μg/mL and 10 μg/mL respectively.

[2] = test system: AR-V7-mediated PSA promoter-driven transcription in PC3-AR-V7-GFP cells; experiment: PSA6.1 promoter driven luciferase reporter assay in PC3-AR-V7-GFP cells
Description: PSA6.1 Promoter Driven Luciferase Reporter Assay in PC3-AR-V7-GFP Cells: PC3-AR-V7-GFP cells were bulk transfected with a mixture of FuGENE® HD transfection agent and the PSA-6.1-Luc reporter plasmid (20 ng/well) combined at a 3:1 (μL:μg) ratio in Opti-MEM™ medium (Gibco, Gaithersburg, MD) that had been incubated for 25 min at RT before being added to PC3-AR-V7-GFP cells that were suspended in RPMI 1640 (Gibco) media containing 1% L-glutamine (Invitrogen), and 10% fetal bovine serum (Gemini Bio-products). Bulk transfected PC3-AR-V7-GFP cells were seeded into white opaque 384-well assay plates (Greiner Bio-one, #781080) at 3,000 cells per well in a volume of 40 μL and incubated at 5% CO2, 37° C., and 95% humidity for 24 h. After 24 h, 5 μL of compounds were transferred to assay wells and the plates were returned to the incubator for an additional 24 h before 25 μL of BrightGlo® luciferase reagent (Promega) was added to the wells and the RLU's were captured on a SpectraMax® M5e plate reader (Molecular Devices LLC) as described previously (Fancher et al., Assay Drug Dev Technol. 2019, 17:364-386).

[3] = PC3-AR-V7-GFP cells, constitutive, read-out: Inhibition AR-V7 UBE2C-reporter IC50
[4] = PC3-AR-V7-GFP cells, constitutive, read-out: Inhibition AR-V7 PSA-reporter IC50
[5] = 24 h, 24 h exposure, read-out: IC50 in UBE2C-Luc AR-V7 reporter assay (potency range in words)
[6] = 24 h, 24 h exposure, read-out: IC50 in PSA-Luc AR-V7 reporter assay (potency range in words)

Row | Structure (SMILES) | IC50 [1, 3] [µM] | AR thermal stability at 46° C., compound alone (AR) | DHT-induced (DHT-enhanced) AR thermal stability at 46° C. (AR) | IC50 [2, 4] [µM] | DHT-enhanced AR stability at 46° C. (AR) | IC50 (AR) [µM] | IC50 [1, 5] [µM] | IC50 [2, 6] [µM] | further results
1 | Cc1ccccc1-c1cc(O)c2c(c1)CN(c1nc(C(N)=O)cs1)CCO2 [Compound S1-1] | < 35 | did not stabilize AR | blocked DHT-enhanced AR thermal stabilization; also recorded: inhibition of DHT-enhanced AR thermal stability | – | – | – | – | – | –
2 | Cc1nc(N)cc(N2CCOc3c(O)cc(-c4ccccc4C)cc3C2)n1 [Compound S1-2] | 8.3 | – | – | 12.2 | – | – | – | – | –
3 | Cc1nsc(NC(=O)N2CCC(Sc3ccccc3C)CC2)n1 [Compound S2-6] | ~15 | did not stabilize AR | blocked DHT-enhanced AR thermal stabilization; also recorded: inhibition of DHT-enhanced AR thermal stability | – | inhibited DHT-enhanced AR stability | 4.1 | – | – | Right shift of the DHT EC50 (AR): > 10 fold; AR thermal stability at 46° C., compound alone (AR; listed as 6): did not enhance AR stability; DHT-induced (DHT-enhanced) AR thermal stability at 46° C. (AR; listed as 6): inhibited DHT-induced AR stability; Maximum efficacy of DHT-enhanced AR thermal stabilization (AR): reduced the maximum efficacy of DHT-enhanced AR thermal stabilization
4 | Cc1c(-c2ccccc2F)[nH]c2ccc(CNC(=O)CCc3cn[nH]c3)cc12 [Compound S3-11] | 12 | did not stabilize AR | blocked DHT-enhanced AR thermal stabilization; also recorded: inhibition of DHT-enhanced AR thermal stability | 3.13 | inhibited DHT-enhanced AR stability | 29.9 | 10 to 100 | 10 to 100 | Right shift of the DHT EC50 (AR): ≥ 10 fold; Maximum efficacy of DHT-enhanced AR thermal stabilization (AR): reduced the maximum efficacy of DHT
5 | Cc1c(-c2ccccc2F)[nH]c2ccc(CNC(=O)CCc3cnccn3)cc12 [Compound S3-12] | – | – | – | – | – | 52.6 | 10 to 100 | 1 to 10 | –
6 | CC(=O)NCCC(=O)NCc1ccc2[nH]c(-c3ccccc3F)c(C)c2c1 [Compound S3-13] | > 100 | – | – | – | – | – | – | 10 to 100 | –
7 | Cc1c(-c2ccccc2F)[nH]c2ccc(CNC(=O)c3ccc(CO)o3)cc12 [Compound S3-14] | – | – | – | – | – | – | 10 to 100 | 10 to 100 | IC50 (AR; b133, unit inferred): 9.46 µM
8 | Cc1c(-c2ccc(F)cc2)[nH]c2ccc(CNC(=O)c3ccc(CO)o3)cc12 [Compound S3-15] | – | – | – | – | – | 86.1 | 10 to 100 | 1 to 10 | –
9 | Cc1cccc2c(-c3ccc(O)c(F)c3)c[nH]c12 [Compound S3-17] | – | – | – | – | inhibited DHT-enhanced AR stability | 9.46 | 10 to 100 | 10 to 100 | –
10 | CNC(=O)c1ccc(-c2c[nH]c3c(C)cccc23)cc1 [Compound S3-21] | > 100 | – | – | > 100 | – | – | – | – | –
